{"source": "patent US20070191402A1", "about": "“Method of searching substrate having antidiabetic activity” (KYOWA HAKKO KOGYO CO., LTD., priority 2002, published 2007)", "key": {"[1]": {"target": "T1, p31 protein (Mus musculus, UniProt Q99LB2)", "T1 construct": "endogenous in cells; host or cells: MIN6 (murine pancreatic beta cell line), digitonin-solubilized membrane fraction", "T1 sequence (Q99LB2 20-279 limits assumed)": "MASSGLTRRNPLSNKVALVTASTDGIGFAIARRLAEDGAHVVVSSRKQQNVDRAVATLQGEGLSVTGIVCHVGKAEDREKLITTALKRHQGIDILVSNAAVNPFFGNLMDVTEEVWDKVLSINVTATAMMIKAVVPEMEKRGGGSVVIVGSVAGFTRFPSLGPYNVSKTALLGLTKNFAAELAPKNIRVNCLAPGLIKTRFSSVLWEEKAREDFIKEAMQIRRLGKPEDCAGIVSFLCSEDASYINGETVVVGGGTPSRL", "assay": "Inhibition of binding of p31 protein from MIN6 solubilized membrane fraction to Compound 155-immobilized particle (SDS-PAGE)", "conditions": "500 μmol/l tested substance, band on SDS-PAGE", "protocol": "The solubilized membrane fraction of MIN6 as prepared in Example 12 was 10-fold diluted with the buffer B. The compound represented by Compound No. 16 (hereinafter referred to as “Compound 16”) at 500 μmol/l was added to 1 ml of the resulting dilution and gently stirred at 4° C. for 2 hours. As a control, the solubilized membrane fraction of MIN6 without addition of the Compound 16 was 10-fold diluted with buffer C [20 mmol/l HEPES, pH 7.4, 2 mmol/l EDTA, 150 mmol/l NaCl, 1% digitonin, 1 mmol/l PMSF, 1 μg/ml aprotinin], and 1 ml of the resulting dilution was gently stirred at 4° C. for 2 hours. Then, a particle immobilizing a compound represented by Compound No. 155 (hereinafter referred to as “Compound 155-immobilized particle”) as prepared in Example 8 was added to the solubilized membrane fraction solution with addition of the Compound 16 and the solubilized membrane fraction solution without addition of any tested substance and gently stirred at 4° C. for 30 minutes. Subsequently, the resulting solutions were centrifuged (12,000 rpm, one minute, 4° C.) to precipitate the particle to thereby remove the supernatants. Then, 750 μl of the buffer C was added and stirred for 3 seconds, followed by centrifugation (12,000 rpm, one minute, 4° C.), to precipitate the particle to remove the supernatant. Then, 750 μl of buffer D [20 mmol/l HEPES, pH 7.4, 2 mmol/l EDTA] was added and stirred for 3 seconds, followed by centrifugation (12,000 rpm, one minute, 4° C.), to precipitate the particle to remove the supernatant. Subsequently, 30 μl of an SDS-polyacrylamide gel electrophoresis sample buffer containing β-mercaptoethanol was added to solubilize the protein binding to Compound 155-immobilized particle, followed by SDS-polyacrylamide gel electrophoresis. Through the purification from the cell extract solution by adding Compound 16 via Compound 155-immobilized particle, p31 protein in which its specific binding to Compound 155-immobilized particle was inhibited by the compound represented by Compound No. 16 was found. […]"}, "[2]": {"tested_on": "MIN6 cell", "assay": "Insulin secretion test using MIN6 cell", "assay_type": "cell-based, murine", "conditions": "MIN6 cell; glucose 14.5 mmol/l or 8.4 mmol/l", "protocol": "Culturing MIN6 cell and testing insulin secretion using MIN6 cell were carried out according to the method described in Diabetorogia, 36, 1139-1145 (1993).\nIn other words, the influence of a compound on the insulin secretion activity in the presence of 14.5 mmol/l glucose was assessed by assaying the amount of insulin in the cell culture supernatant collected as follows.\nThe MIN6 cell cultured in a 24-well plate was washed twice with 1 ml of buffer A [119 mmol/l NaCl, 4.74 mmol/l KCl, 2.54 mmol/l CaCl2, 1.19 mmol/l MgSO4, 1.19 mmol/l KH2PO4, 10 mmol/l 2-[4-(2-hydroxylethyl)-1-piperadinyl]ethanesulfonic acid, 0.1% BSA, pH 7.3] containing 2 mmol/l glucose. Subsequently, the resulting cell was incubated in 1 ml of the buffer A containing 2 mmol/l glucose at 37° C. for 45 minutes. The culture supernatant was exchanged with the buffer A (1 ml) containing test compounds of various concentrations and 8.4 mmol/l glucose and incubated at 37° C. for 45 minutes to collect the culture supernatant.\nAntibody-reactive insulin secreted in the culture supernatant was assayed by radioimmunoassay [Methods in Investigative and Diagnostic Endocrinology, Vol. 2A, 2B, North-Holland Publishing Co., Amsterdam (1973)] after the culture supernatant was diluted with phosphate buffer containing 1% BSA, 0.1% Tween 20, 0.12% EDTA 2Na, and 0.1% sodium azide. A standard curve was prepared by using human insulin as the standard substance, and individual insulin values were calculated on the basis of the curve."}, "[3]": {"tested_on": "pancreatic β cell (MIN6 cell)", "assay": "Inhibition of binding of [3H]-labeled Compound 16 to pancreatic β cell", "design": "species or system murine", "conditions": "test compound 1 μmol/l; 10 nmol/l [3H]-labeled Compound 16; MIN6 cell, 4° C.", "protocol": "MIN6 cell cultured to almost confluence in a 24-well plate for cell culture (manufactured by Corning) was washed twice with KRH buffer (119 mmol/l NaCl, 4.74 mmol/KCl, 2.54 mmol/l calcium chloride (CaCl2), 1.19 mmol/l magnesium sulfate (MgSO4), 1.19 mmol/l potassium dihydrogen phosphate (KH2PO4), 10 mmol/l HEPES, 2 mmol/l glucose, 0.1 w/v % bovine serum albumin (BSA), pH 7.3). Subsequently, the KRH buffer was added at 1 ml per well, for preincubation at 37° C. for 45 minutes. After preincubation, the supernatant was discarded, and 0.15 ml of the KRH buffer, […] at 4° C. for one hour or longer until the reaction reached equilibrium. Subsequently, the cell was washed twice using the KRH buffer. The KRH buffer was added at 2 ml per well, which was then left to stand at room temperature for 20 minutes. The cell was again washed twice by using the KRH buffer. The radioactivity remaining in each well was counted with a liquid scintillation counter to determine the binding amount.\nThe difference between the binding amount of the [^3H]-labeled Compound 16 (total binding amount) under conditions with no addition of any test compound and the binding amount of the [^3H]-labeled Compound 16 (non-specific binding amount) under conditions in the presence of the Compound 16 at 10 μmol/l was defined as specific binding amount.\nAccording to the method described in Example 5, a substance having anti-diabetic activity was screened for, using the inhibitory activity of the binding between pancreatic β cells and [^3H]-labeled Compound 16. A tested substance was dissolved in dimethylsulfoxide and then added to give a final concentration of 1 μmol/l. The radioactivity with addition of the unlabeled Compound 16 was defined as the non-specific binding amount and the radioactivity without addition of the unlabeled Compound 16 was defined as the total binding amount, and then the individual specific binding amounts were calculated by the method described in Example 6. Using the following formula, the binding inhibition ratio was determined. [formula]"}}}
{"molecule": "CCCN1C(=O)N2CC(Cc3ccccc3)N=C2c2[nH]c(C3CCCC3)nc21", "note": "(single isomer, unassigned) [compound 17]", "values": [{"measurement": "inhibition of the binding of the p31 protein to the Compound 155-immobilized particle", "setting": "[1]", "value": "cannot inhibit the binding of the p31 protein"}, {"measurement": "Insulin secretory activity (%)", "setting": "[2]", "value": 15.8, "unit": "%"}, {"measurement": "Binding inhibitory activity (%)", "setting": "[3]", "value": 5.4, "unit": "%"}]}
